In PMC5218480 (PLoS ONE, 2017):

Test system: MV-4-11 cells
Test: Gene expression microarray analysis (Affymetrix PrimeView) and GSEA
Format: cell-based, human
Set-up: RFU PODN (11730768_x_at) / Fold change /veh PODN (11730768_x_at) / RFU LINC00158 (11744669_a_at) / Fold change /veh LINC00158 (11744669_a_at) / RFU DUSP10 (11751237_a_at) / Fold change /veh DUSP10 (11751237_a_at) / RFU ID3 (11757404_x_at) / Fold change /veh ID3 (11757404_x_at) / RFU PLEKHG5 (11737974_s_at) / Fold change /veh PLEKHG5 (11737974_s_at) / RFU LRRC4B (11730491_at) / Fold change /veh LRRC4B (11730491_at) / RFU GIMAP4 (11747438_a_at) / Fold change /veh GIMAP4 (11747438_a_at) / RFU KRT8 (11758183_x_at) / Fold change /veh KRT8 (11758183_x_at) / RFU CNN1 (11734310_a_at) / Fold change /veh CNN1 (11734310_a_at) / RFU VPS37D (11726825_at) / Fold change /veh VPS37D (11726825_at) / RFU C10orf10 (11716522_x_at) / Fold change /veh C10orf10 (11716522_x_at) / RFU KIR2DL2 /// KIR2DL4 /// KIR2DL5A /// KIR2DL5B /// KIR2DS1 /// KIR2DS2 /// KIR2DS3 /// KIR2DS4 /// KIR3DL3 /// KIR3DL3 /// KIR3DS1 (11738374_at) / Fold change /veh KIR2DL2 /// KIR2DL4 /// KIR2DL5A /// KIR2DL5B /// KIR2DS1 /// KIR2DS2 /// KIR2DS3 /// KIR2DS4 /// KIR3DL3 /// KIR3DL3 /// KIR3DS1 (11738374_at) / RFU C1QL1 (11718748_at) / Fold change /veh C1QL1 (11718748_at) / RFU TMPRSS4 (11747572_a_at) / Fold change /veh TMPRSS4 (11747572_a_at) / RFU HAMP (11756126_x_at) / Fold change /veh HAMP (11756126_x_at) / RFU RNFT2 (11725882_a_at) / Fold change /veh RNFT2 (11725882_a_at) / RFU NR4A2 (11747474_a_at) / Fold change /veh NR4A2 (11747474_a_at) / RFU ABCC12 (11746883_a_at) / Fold change /veh ABCC12 (11746883_a_at) / RFU TMEM136 (11760407_x_at) / Fold change /veh TMEM136 (11760407_x_at) / RFU CLDN22 /// WWC2 (11732394_at) / Fold change /veh CLDN22 /// WWC2 (11732394_at) / RFU HLA-DPB1 (11760878_x_at) / Fold change /veh HLA-DPB1 (11760878_x_at) / RFU SPINT1 (11716480_a_at) / Fold change /veh SPINT1 (11716480_a_at) / RFU GAP43 (11754022_s_at) / Fold change /veh GAP43 (11754022_s_at) / RFU A4GNT (11735810_at) / Fold change /veh A4GNT (11735810_at) / RFU PRB3 (11715151_x_at) / Fold change /veh PRB3 (11715151_x_at) / RFU TUBB4B (11761932_at) / Fold change /veh TUBB4B (11761932_at) / RFU CAPN14 (11732068_a_at) / Fold change /veh CAPN14 (11732068_a_at) / RFU TMCC2 (11721928_a_at) / Fold change /veh TMCC2 (11721928_a_at) / RFU IRGQ (11745062_a_at) / Fold change /veh IRGQ (11745062_a_at) / RFU FAM174B (11720279_a_at) / Fold change /veh FAM174B (11720279_a_at) / RFU TMPRSS4 (11748680_a_at) / Fold change /veh TMPRSS4 (11748680_a_at) / RFU FAM212B (11763350_a_at) / Fold change /veh FAM212B (11763350_a_at) / RFU PLEKHG5 (11743358_a_at) / Fold change /veh PLEKHG5 (11743358_a_at) / RFU ZSCAN30 (11745921_a_at) / Fold change /veh ZSCAN30 (11745921_a_at) / RFU CMKLR1 (11741424_a_at) / Fold change /veh CMKLR1 (11741424_a_at) / RFU LOC101060620 /// MAPK8IP1 (11723275_at) / Fold change /veh LOC101060620 /// MAPK8IP1 (11723275_at) / RFU SPTSSB (11747773_x_at) / Fold change /veh SPTSSB (11747773_x_at) / RFU PRSS12 (11739890_at) / Fold change /veh PRSS12 (11739890_at) / RFU BIN1 (11741810_x_at) / Fold change /veh BIN1 (11741810_x_at) / RFU WNT11 (11732464_a_at) / Fold change /veh WNT11 (11732464_a_at) / RFU C10orf10 (11716521_a_at) / Fold change /veh C10orf10 (11716521_a_at) / RFU C5orf56 (11738089_at) / Fold change /veh C5orf56 (11738089_at) / RFU CYB561 (11721691_x_at) / Fold change /veh CYB561 (11721691_x_at) / RFU ANKRD19P (11752326_a_at) / Fold change /veh ANKRD19P (11752326_a_at) / RFU OR2T12 /// OR2T33 /// OR2T8 (11738714_s_at) / Fold change /veh OR2T12 /// OR2T33 /// OR2T8 (11738714_s_at) / RFU VCAN (11748164_a_at) / Fold change /veh VCAN (11748164_a_at) / RFU JSRP1 (11732532_at) / Fold change /veh JSRP1 (11732532_at) / RFU KRTAP10-11 (11738290_x_at) / Fold change /veh KRTAP10-11 (11738290_x_at) / RFU MYO3A (11730013_a_at) / Fold change /veh MYO3A (11730013_a_at) / RFU EBF3 (11725865_a_at) / Fold change /veh EBF3 (11725865_a_at) / RFU CAMK2N1 (11719241_x_at) / Fold change /veh CAMK2N1 (11719241_x_at) / RFU C5orf56 (11738088_a_at) / Fold change /veh C5orf56 (11738088_a_at) / RFU OLFML3 (11715873_a_at) / Fold change /veh OLFML3 (11715873_a_at) / RFU LOC100653217 /// NTM (11731650_a_at) / Fold change /veh LOC100653217 /// NTM (11731650_a_at) / RFU MAPK11 (11762145_a_at) / Fold change /veh MAPK11 (11762145_a_at) / RFU FIZ1 (11724087_x_at) / Fold change /veh FIZ1 (11724087_x_at) / RFU OASL (11726364_x_at) / Fold change /veh OASL (11726364_x_at) / RFU SOX15 (11748057_x_at) / Fold change /veh SOX15 (11748057_x_at) / RFU CD79A (11719716_a_at) / Fold change /veh CD79A (11719716_a_at) / RFU HIST1H1D (11736915_at) / Fold change /veh HIST1H1D (11736915_at) / RFU CASKIN2 (11723855_a_at) / Fold change /veh CASKIN2 (11723855_a_at) / RFU LOC730098 (11760151_x_at) / Fold change /veh LOC730098 (11760151_x_at) / RFU OR4N2 (11742367_at) / Fold change /veh OR4N2 (11742367_at) / RFU PRRT2 (11749266_a_at) / Fold change /veh PRRT2 (11749266_a_at) / RFU SNX32 (11753110_a_at) / Fold change /veh SNX32 (11753110_a_at) / RFU CDHR5 (11726645_a_at) / Fold change /veh CDHR5 (11726645_a_at) / RFU RCAN1 (11760418_a_at) / Fold change /veh RCAN1 (11760418_a_at) / RFU FAM167A (11723789_a_at) / Fold change /veh FAM167A (11723789_a_at) / RFU FAM26E (11764081_at) / Fold change /veh FAM26E (11764081_at) / RFU ISYNA1 (11749810_s_at) / Fold change /veh ISYNA1 (11749810_s_at) / RFU ACY1 (11761880_at) / Fold change /veh ACY1 (11761880_at) / RFU 11764098_at / Fold change /veh 11764098_at / RFU SAMD14 (11745864_x_at) / Fold change /veh SAMD14 (11745864_x_at) / RFU NPB (11741838_a_at) / Fold change /veh NPB (11741838_a_at) / RFU TMPRSS6 (11731388_a_at) / Fold change /veh TMPRSS6 (11731388_a_at) / RFU KRTAP10-2 (11738614_at) / Fold change /veh KRTAP10-2 (11738614_at) / RFU ARHGAP8 /// PRR5-ARHGAP8 (11727945_x_at) / Fold change /veh ARHGAP8 /// PRR5-ARHGAP8 (11727945_x_at) / RFU KRTAP5-7 /// NADSYN1 (11734609_at) / Fold change /veh KRTAP5-7 /// NADSYN1 (11734609_at) / RFU RASL12 (11751679_a_at) / Fold change /veh RASL12 (11751679_a_at) / RFU CDKN2B (11736163_a_at) / Fold change /veh CDKN2B (11736163_a_at) / RFU PRF1 (11729649_at) / Fold change /veh PRF1 (11729649_at) / RFU, ZNF638 /// ZNF638-IT1 / Fold change vs veh, ZNF638 /// ZNF638-IT1 / RFU, PANK3 / Fold change vs veh, PANK3 / RFU, SH3YL1 / Fold change vs veh, SH3YL1 / RFU, ZEB2 / Fold change vs veh, ZEB2 / RFU, NRIP1 / Fold change vs veh, NRIP1 / RFU, PTTG1IP / Fold change vs veh, PTTG1IP / RFU, CAPN2 / Fold change vs veh, CAPN2 / RFU, MED14 / Fold change vs veh, MED14 / RFU, SNORA58 / Fold change vs veh, SNORA58 / RFU, C1orf63 / Fold change vs veh, C1orf63 / RFU, LRRFIP1 / Fold change vs veh, LRRFIP1 / RFU, NDUFAF7 / Fold change vs veh, NDUFAF7 / RFU, SLC12A2 / Fold change vs veh, SLC12A2 / RFU, IBTK / Fold change vs veh, IBTK / RFU, ESF1 / Fold change vs veh, ESF1 / Fold change vs veh, TMEM50B / RFU, TAOK1 / Fold change vs veh, TAOK1 / RFU, ACBD3 / Fold change vs veh, ACBD3 / RFU, TMA16 / Fold change vs veh, TMA16 / RFU, RWDD3 / Fold change vs veh, RWDD3 / RFU, BCAT1 / Fold change vs veh, BCAT1 / RFU, EDEM3 / Fold change vs veh, EDEM3 / RFU, TMEM33 / Fold change vs veh, TMEM33 / RFU, WDR75 / Fold change vs veh, WDR75 / RFU, AHCTF1 / Fold change vs veh, AHCTF1 / RFU, TFRC / Fold change vs veh, TFRC / RFU, ZDHHC17 / Fold change vs veh, ZDHHC17 / RFU, NOM1 / Fold change vs veh, NOM1 / RFU, ARL8B / Fold change vs veh, ARL8B / RFU, ZBTB11 / Fold change vs veh, ZBTB11 / RFU, TAMM41 / Fold change vs veh, TAMM41 / RFU, KIAA1704 /// LOC100996395 / Fold change vs veh, KIAA1704 /// LOC100996395 / RFU, ING1 / Fold change vs veh, ING1 / RFU, TRMT61B / Fold change vs veh, TRMT61B / RFU, FUBP3 / Fold change vs veh, FUBP3 / RFU, TP53 / Fold change vs veh, TP53 / RFU, TNKS2 / Fold change vs veh, TNKS2 / RFU, ZFP14 / Fold change vs veh, ZFP14 / RFU, ACTR2 / Fold change vs veh, ACTR2 / RFU, PPP3R1 / Fold change vs veh, PPP3R1 / RFU, PIK3R1 / Fold change vs veh, PIK3R1 / RFU, HNRNPA1 / Fold change vs veh, HNRNPA1 / RFU, RNF170 / Fold change vs veh, RNF170 / RFU, ZNF28 / Fold change vs veh, ZNF28 / RFU, RNGTT / Fold change vs veh, RNGTT / RFU, OGT / Fold change vs veh, OGT / RFU, BRD1 / Fold change vs veh, BRD1 / RFU, MARS / Fold change vs veh, MARS / RFU, ZNF655 / Fold change vs veh, ZNF655 / RFU, FAHD1 / Fold change vs veh, FAHD1 / RFU, BDP1 / Fold change vs veh, BDP1 / RFU, LRRCC1 / Fold change vs veh, LRRCC1 / RFU, ARID1A / Fold change vs veh, ARID1A / RFU, ZNF146 / Fold change vs veh, ZNF146 / RFU, ZNF330 / Fold change vs veh, ZNF330 / RFU, GPN3 / Fold change vs veh, GPN3 / RFU, C9orf123 / Fold change vs veh, C9orf123 / RFU, N4BP2L2 / Fold change vs veh, N4BP2L2 / RFU, ARFIP1 / Fold change vs veh, ARFIP1 / RFU, FAM179B / Fold change vs veh, FAM179B / RFU, BCL10 / Fold change vs veh, BCL10 / RFU, UHRF1BP1L / Fold change vs veh, UHRF1BP1L / RFU, BET1 / Fold change vs veh, BET1 / RFU, CNOT2 / Fold change vs veh, CNOT2 / RFU, ZNF268 / Fold change vs veh, ZNF268 / Fold change vs veh, ZNF507 / RFU, DGCR2 / Fold change vs veh, DGCR2 / RFU, WDSUB1 / Fold change vs veh, WDSUB1 / Fold change vs veh, HSP90B1 /// MIR3652 / RFU, ADSS / Fold change vs veh, ADSS / RFU, GK / Fold change vs veh, GK / RFU, ZNF148 / Fold change vs veh, ZNF148 / RFU, TAF9 / Fold change vs veh, TAF9 / RFU, SLC1A5 / Fold change vs veh, SLC1A5 / RFU, SLMO2 / Fold change vs veh, SLMO2 / RFU, ABCC4 / Fold change vs veh, ABCC4 / RFU, LOC101060439 /// RAP1B / Fold change vs veh, LOC101060439 /// RAP1B / RFU, RFX7 / Fold change vs veh, RFX7 / RFU, GTPBP10 / Fold change vs veh, GTPBP10 / RFU, CNEP1R1 / Fold change vs veh, CNEP1R1 / RFU, BIVM-ERCC5 /// ERCC5 / Fold change vs veh, BIVM-ERCC5 /// ERCC5 / RFU, ILF3 / Fold change vs veh, ILF3 / RFU 11762660_at / Fold change /veh 11762660_at / RFU VCAN (11757783_s_at) / Fold change /veh VCAN (11757783_s_at) / RFU DDX43 (11728927_at) / Fold change /veh DDX43 (11728927_at) / RFU KRT8 (11758188_x_at) / Fold change /veh KRT8 (11758188_x_at) / RFU NKD1 (11759106_at) / Fold change /veh NKD1 (11759106_at) / RFU SRD5A1 (11742802_a_at) / Fold change /veh SRD5A1 (11742802_a_at) / RFU TPSAB1 /// TPSB2 (11721975_s_at) / Fold change /veh TPSAB1 /// TPSB2 (11721975_s_at) / RFU GSTM3 (11746129_a_at) / Fold change /veh GSTM3 (11746129_a_at) / RFU IL23R (11737362_x_at) / Fold change /veh IL23R (11737362_x_at) / RFU TMEM51 (11727254_a_at) / Fold change /veh TMEM51 (11727254_a_at) / RFU PIWIL2 (11732686_x_at) / Fold change /veh PIWIL2 (11732686_x_at) / RFU ORM1 (11744905_x_at) / Fold change /veh ORM1 (11744905_x_at) / RFU CCDC152 (11743942_at) / Fold change /veh CCDC152 (11743942_at) / RFU ECM1 (11717891_a_at) / Fold change /veh ECM1 (11717891_a_at) / RFU IL23R (11748794_a_at) / Fold change /veh IL23R (11748794_a_at) / RFU TNFAIP8L3 (11732012_x_at) / Fold change /veh TNFAIP8L3 (11732012_x_at) / RFU MBOAT4 (11741988_at) / Fold change /veh MBOAT4 (11741988_at) / RFU 11764193_at / Fold change /veh 11764193_at / RFU TMEM53 (11763286_at) / Fold change /veh TMEM53 (11763286_at) / RFU MAGEB2 (11727129_at) / Fold change /veh MAGEB2 (11727129_at) / RFU TMEM200A (11744735_a_at) / Fold change /veh TMEM200A (11744735_a_at) / RFU CCDC152 (11751479_a_at) / Fold change /veh CCDC152 (11751479_a_at) / RFU FAM211A (11726209_a_at) / Fold change /veh FAM211A (11726209_a_at) / RFU RGS16 (11746705_a_at) / Fold change /veh RGS16 (11746705_a_at) / RFU VCAN (11755009_s_at) / Fold change /veh VCAN (11755009_s_at) / RFU RHOB (11743442_s_at) / Fold change /veh RHOB (11743442_s_at) / RFU RGS16 (11720943_a_at) / Fold change /veh RGS16 (11720943_a_at) / RFU RGS16 (11720944_at) / Fold change /veh RGS16 (11720944_at) / RFU, VPS4B / Fold change vs veh, VPS4B / RFU, CREB1 / Fold change vs veh, CREB1 / RFU, DNAJC13 / Fold change vs veh, DNAJC13 / RFU, GNAQ / Fold change vs veh, GNAQ / RFU, CDK5R1 / Fold change vs veh, CDK5R1 / RFU, ZRANB3 / Fold change vs veh, ZRANB3 / RFU, CUL4A / Fold change vs veh, CUL4A / RFU, CCNY / Fold change vs veh, CCNY / RFU, UFL1 / Fold change vs veh, UFL1 / RFU, COG3 / Fold change vs veh, COG3 / RFU, DIAPH2 / Fold change vs veh, DIAPH2 / RFU, SKA2 / Fold change vs veh, SKA2 / RFU, AFF3 / Fold change vs veh, AFF3 / RFU, LMF1 / Fold change vs veh, LMF1 / RFU, IPO11 / Fold change vs veh, IPO11 / RFU, DFFB / Fold change vs veh, DFFB / RFU, FOXP1 / Fold change vs veh, FOXP1 / RFU, CARD8 / Fold change vs veh, CARD8 / RFU, STRN3 / Fold change vs veh, STRN3 / RFU, ADK / Fold change vs veh, ADK / RFU, RASSF2 / Fold change vs veh, RASSF2 / RFU, WIPF1 / Fold change vs veh, WIPF1 / RFU, LARP1B / Fold change vs veh, LARP1B / RFU, RASA1 / Fold change vs veh, RASA1 / RFU, RB1 / Fold change vs veh, RB1 / RFU, PPFIA1 / Fold change vs veh, PPFIA1 / RFU, MAT2A / Fold change vs veh, MAT2A / RFU, CCT5 / Fold change vs veh, CCT5 / RFU, WDR92 / Fold change vs veh, WDR92 / RFU, CUX1 / Fold change vs veh, CUX1 / RFU, TTC7A / Fold change vs veh, TTC7A / RFU, TMEM135 / Fold change vs veh, TMEM135 / RFU, DEPTOR / Fold change vs veh, DEPTOR / RFU, CPM / Fold change vs veh, CPM / RFU, DNAJB6 / Fold change vs veh, DNAJB6 / RFU, CACNA2D3 / Fold change vs veh, CACNA2D3 / RFU, DTX4 / Fold change vs veh, DTX4 / RFU, TFCP2 / Fold change vs veh, TFCP2 / RFU, GMCL1 /// GMCL1P1 / Fold change vs veh, GMCL1 /// GMCL1P1 / RFU, AEBP2 / Fold change vs veh, AEBP2 / RFU, SNHG1 /// SNORD22 /// SNORD25 /// SNORD26 /// SNORD27 /// SNORD28 /// SNORD29 /// SNORD31 / Fold change vs veh, SNHG1 /// SNORD22 /// SNORD25 /// SNORD26 /// SNORD27 /// SNORD28 /// SNORD29 /// SNORD31 / Fold change (Aza/veh), C12orf56 (ProbeSet 11735607_a_at) / Fold change (ACY-1035/veh), C12orf56 (ProbeSet 11735607_a_at) / Fold change (Aza/veh), FGFR1OP (ProbeSet 11751329_s_at) / Fold change (ACY-1035/veh), FGFR1OP (ProbeSet 11751329_s_at) / Fold change (Aza/veh), VPS36 (ProbeSet 11739960_a_at) / Fold change (ACY-1035/veh), VPS36 (ProbeSet 11739960_a_at) / RFU SYPL1 (11715823_x_at) / Fold change /veh SYPL1 (11715823_x_at) / RFU IGFBP7 (11715501_s_at) / Fold change /veh IGFBP7 (11715501_s_at) / RFU REEP3 (11722064_at) / Fold change /veh REEP3 (11722064_at) / RFU IGLL1 (11728026_x_at) / Fold change /veh IGLL1 (11728026_x_at): dose or concentration left out as unconfirmed
Settings: MV-4-11 cells, 48 hours

Question: How did the “Fold change /veh CD79A (11719716_a_at)” value turn out when Nc1ncn([C@@H]2O[C@H](CO)[C@@H](O)[C@H]2O)c(=O)n1 [azacitidine] was run?
Answer: 0.94
